According to patent US10758534B2 (Vertex Pharmaceuticals Incorporated, priority 2014, dated 2020):
Where two headings read alike, the source gives them in different places.

Target: T1, F508del (Homo sapiens, UniProt P13569, DEL508-508)
T1 construct: expressed in transfected cells
Test: Protocol 2: FRET membrane potential optical assay (VIPR), identification of correction compounds
Type: cell-based
Procedure, shortened: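 NIH3T3 mouse fibroblasts stably expressing F508del-CFTR incubated with compound 16 h at 37 °C in serum-free medium, then loaded with CC2-DMPE/DiSBAC2(3) FRET dyes. Channel activated with 10 μM forskolin plus 20 μM genistein in Cl⁻-free (gluconate) bath; depolarisation from Cl⁻ efflux read on VIPR II.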

[1] = F508del CFTR modulator activity, compounds of Table 1, read-out: EC30

T1 sequence (P13569 with tags, fused parts or gaps DEL508-508): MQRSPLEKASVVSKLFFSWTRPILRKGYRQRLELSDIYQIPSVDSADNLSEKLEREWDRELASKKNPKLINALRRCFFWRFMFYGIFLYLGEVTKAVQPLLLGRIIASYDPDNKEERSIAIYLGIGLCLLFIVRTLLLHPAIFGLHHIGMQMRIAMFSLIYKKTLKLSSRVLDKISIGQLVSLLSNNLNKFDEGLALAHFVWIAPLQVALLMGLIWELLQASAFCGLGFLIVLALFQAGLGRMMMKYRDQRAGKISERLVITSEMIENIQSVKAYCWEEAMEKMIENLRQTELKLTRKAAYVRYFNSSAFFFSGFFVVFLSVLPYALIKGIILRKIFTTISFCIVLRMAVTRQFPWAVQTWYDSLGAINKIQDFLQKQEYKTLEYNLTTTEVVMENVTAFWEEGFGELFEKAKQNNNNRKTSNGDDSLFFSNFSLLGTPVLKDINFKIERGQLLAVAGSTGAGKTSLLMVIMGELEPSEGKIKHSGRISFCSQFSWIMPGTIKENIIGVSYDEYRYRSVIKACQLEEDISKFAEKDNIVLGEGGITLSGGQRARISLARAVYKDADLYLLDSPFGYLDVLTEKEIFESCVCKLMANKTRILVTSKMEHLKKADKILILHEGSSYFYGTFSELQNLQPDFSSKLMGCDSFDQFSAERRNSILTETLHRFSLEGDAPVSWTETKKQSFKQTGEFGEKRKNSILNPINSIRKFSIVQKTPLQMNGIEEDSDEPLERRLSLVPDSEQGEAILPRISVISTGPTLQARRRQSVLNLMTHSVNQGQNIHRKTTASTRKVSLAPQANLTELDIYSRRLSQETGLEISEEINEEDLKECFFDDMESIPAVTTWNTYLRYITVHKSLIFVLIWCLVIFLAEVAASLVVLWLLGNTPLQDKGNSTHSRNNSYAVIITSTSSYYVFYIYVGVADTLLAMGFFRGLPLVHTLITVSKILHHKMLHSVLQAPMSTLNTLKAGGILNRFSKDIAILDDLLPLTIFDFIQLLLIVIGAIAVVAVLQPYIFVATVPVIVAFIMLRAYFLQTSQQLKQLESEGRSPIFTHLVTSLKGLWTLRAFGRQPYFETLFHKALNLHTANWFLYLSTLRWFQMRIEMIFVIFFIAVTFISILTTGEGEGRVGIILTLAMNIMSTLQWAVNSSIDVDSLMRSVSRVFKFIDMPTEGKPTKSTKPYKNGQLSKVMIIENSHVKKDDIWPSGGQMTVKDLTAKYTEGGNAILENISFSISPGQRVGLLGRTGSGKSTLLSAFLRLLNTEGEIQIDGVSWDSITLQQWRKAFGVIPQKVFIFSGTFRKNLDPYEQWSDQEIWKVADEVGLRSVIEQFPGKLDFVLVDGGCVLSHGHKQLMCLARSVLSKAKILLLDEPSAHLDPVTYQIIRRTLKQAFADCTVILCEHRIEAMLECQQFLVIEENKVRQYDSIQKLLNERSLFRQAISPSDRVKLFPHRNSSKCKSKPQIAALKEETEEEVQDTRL

Compound	EC30 [1] [nM]	EC30 [nM]
CC(C)COc1cc(F)cc(-c2ccc(C(=O)NS(=O)(=O)c3cccc(N)n3)c(N3CC(C(C)(C)C)CC3(C)C)n2)c1 (stereo not drawn) [Compound 2538, N-[(6-amino-2-pyridyl)sulfonyl]-2-(4-tert-butyl-2,2-dimethyl-pyrrolidin-1-yl)-6-(3-fluoro-5-isobutoxy-phenyl)pyridine-3-carboxamide]	< 3000	–
C[C@@H]1CN(c2nc(-c3ccccc3OC(F)(F)F)ccc2C(=O)NS(=O)(=O)c2cccnc2N)C(C)(C)C1 [Compound 2539, N-[(2-amino-3-pyridyl)sulfonyl]-6-[12-(trifluoromethoxy)phenyl]-2-[(4S)-2,2,4-trimethylpyrrolidin-1-yl]pyridine-3-carboxamide]	< 3000	–
C#CCCC(=O)Nc1cccc(S(=O)(=O)NC(=O)c2ccc(-c3ccc(Cl)c(OCCC)c3)nc2N2[C@H](C)CC[C@@H]2C)n1 [Compound 2540, 6-(4-chloro-3-propoxy-phenyl)-2-[(2R,5S)-2,5-dimethylpyrrolidin-1-yl]-N-[[6-(pent-4-ynoylamino)-2-pyridyl]sulfonyl]pyridine-3-carboxamide]	< 3000	–
CC(C)Oc1ccccc1-c1ccc(C(=O)NS(=O)(=O)c2ccc[nH]c2=O)c(N2C[C@@H](C)CC2(C)C)n1 [Compound 2541, 6-(2-isopropoxyphenyl)-N-[(2-oxo-1H-pyridin-3-yl)sulfonyl]-2-[(4S)-2,2,4-trimethylpyrrolidin-1-yl]pyridine-3-carboxamide]	< 3000	–
C[C@@H]1CN(c2nc(-c3ccccc3F)ccc2C(=O)NS(=O)(=O)c2ccc[nH]c2=O)C(C)(C)C1 [Compound 2542, 6-(2-fluorophenyl)-N-[(2-oxo-1H-pyridin-3-yl)sulfonyl]-2-[(4S)-2,2,4-trimethylpyrrolidin-1-yl]pyridine-3-carboxamide]	< 3000	–
Cc1cc(-c2ccc(C(=O)NS(=O)(=O)c3cccc(N)n3)c(N3C[C@@H](C)CC3(C)C)n2)ccc1OC(F)F [Compound 2543, N-[(6-amino-2-pyridyl)sulfonyl]-6-[4-(difluoromethoxy)-3-methyl-phenyl]-2-[(4S)-2,2,4-trimethylpyrrolidin-1-yl]pyridine-3-carboxamide]	< 3000	–
Nc1cccc(S(=O)(=O)NC(=O)c2cccnc2Oc2ccccc2-c2nc3ccccc3o2)n1 [Compound 2544, N-[(6-amino-2-pyridyl)sulfonyl]-2-[2-(1,3-benzoxazol-2-yl)phenoxy]pyridine-3-carboxamide]	> 10000	–
CC(C)Oc1cccc(-c2ccc(C(=O)NS(=O)(=O)c3ccc[nH]c3=O)c(N3C[C@@H](C)CC3(C)C)n2)c1 [Compound 2549, 6-(3-isopropoxyphenyl)-N-[(2-oxo-1H-pyridin-3-yl)sulfonyl]-2-[(4S)-2,2,4-trimethylpyrrolidin-1-yl]pyridine-3-carboxamide]	< 3000	–
C[C@@H]1CN(c2nc(-n3ccc(OCC(C)(C)C)n3)ccc2C(=O)NS(=O)(=O)C2CC2)C(C)(C)C1 [Compound 2554, N-cyclopropylsulfonyl-6-[3-(2,2-dimethylpropoxy)pyrazol-1-yl]-2-[(4S)-2,2,4-trimethylpyrrolidin-1-yl]pyridine-3-carboxamide]	< 3000	–
Cc1cc(-c2ccc(C(=O)NS(=O)(=O)c3ccc[nH]c3=O)c(N3C[C@@H](C)CC3(C)C)n2)cc(C)c1O [Compound 2556, 6-(4-hydroxy-3,5-dimethyl-phenyl)-N-[(2-oxo-1H-pyridin-3-yl)sulfonyl]-2-[(4S)-2,2,4-trimethylpyrrolidin-1-yl]pyridine-3-carboxamide]	3000 to 10000	–
Cc1cc(OCC(C)C)cc(-c2cnc(N3CC(C)CC3(C)C)c(C(=O)NS(=O)(=O)c3cccc(N)n3)c2)c1 (stereo not drawn) [Compound 2558, N-[(6-amino-2-pyridyl)sulfonyl]-5-(3-isobutoxy-5-methyl-phenyl)-2-(2,2,4-trimethylpyrrolidin-1-yl)pyridine-3-carboxamide]	< 3000	–
C[C@@H]1CN(c2nc(-c3ccc(F)c(F)c3)ccc2C(=O)NS(=O)(=O)c2cccc(N)n2)C(C)(C)C1 [Compound 2559, N-[(6-amino-2-pyridyl)sulfonyl]-6-(3,4-difluorophenyl)-2-[(4S)-2,2,4-trimethylpyrrolidin-1-yl]pyridine-3-carboxamide]	< 3000	–
[2H]C1([2H])[C@@H](C)CC(C)(C)N1c1nc(-c2cc(F)cc(OCC(C)C)c2)ccc1C(=O)NS(=O)(=O)c1ccccc1 [Compound 2560, N-(benzenesulfonyl)-2-[(3S)-2,2-dideuterio-3,5,5-trimethyl-pyrrolidin-1-yl]-6-(3-fluoro-5-isobutoxy-phenyl)pyridine-3-carboxamide]	–	< 3000

Continued, in another order:

EC30 [1] [nM]	Compound	EC30 [nM]
3000 to 10000	CNc1cccc(S(=O)(=O)NC(=O)c2cccnc2N2CC(C)CC2(C)C)n1 (stereo not drawn) [Compound 2535, N—[[6-(methylamino)-2-pyridyl]sulfonyl]-2-(2,2,4-trimethylpyrrolidin-1-yl)pyridine-3-carboxamide]	–
< 3000	CC1CN(c2ncccc2C(=O)NS(=O)(=O)c2cccc(N3CCC[C@@H]3C(=O)OC(C)(C)C)n2)C(C)(C)C1 (stereo partly drawn) [Compound 2536, tert-butyl (2R)-1-[6-[[2-(2,2,4-trimethylpyrrolidin-1-yl)pyridine-3-carbonyl]sulfamoyl]-2-pyridyl]pyrrolidine-2-carboxylate]	–
3000 to 10000	CC1CN(c2ncccc2C(=O)NS(=O)(=O)c2cccc(N3CC[C@@H](NC(=O)OC(C)(C)C)C3)n2)C(C)(C)C1 (stereo partly drawn) [Compound 2537, tert-butyl N-[(3R)-1-[6-[[2-(2,2,4-trimethylpyrrolidin-1-yl)pyridine-3-carbonyl]sulfamoyl]-2-pyridyl]pyrrolidin-3-yl]carbamate]	–
< 3000	COc1cc(Cl)cc(-c2cnc(N3CC(C)CC3(C)C)c(C(=O)NS(=O)(=O)c3cccc(N)n3)c2)c1 (stereo not drawn) [Compound 2545, N-[(6-amino-2-pyridyl)sulfonyl]-5-(3-chloro-5-methoxy-phenyl)-2-(2,2,4-trimethylpyrrolidin-1-yl)pyridine-3-carboxamide]	–
< 3000	CC1CN(c2ncccc2C(=O)NS(=O)(=O)c2cccc(Nc3ccc(-c4cnco4)cc3)n2)C(C)(C)C1 (stereo not drawn) [Compound 2546, N—[[6-(4-oxazol-5-ylanilino)-2-pyridyl]sulfonyl]-2-(2,2,4-trimethylpyrrolidin-1-yl)pyridine-3-carboxamide]	–
< 3000	CC1CN(c2ncc(-c3ccc(C(C)(C)O)cc3)cc2C(=O)NS(=O)(=O)c2cccc(N)n2)C(C)(C)C1 (stereo not drawn) [Compound 2547, N-[(6-amino-2-pyridyl)sulfonyl]-5-[4-(1-hydroxy-1-methyl-ethyl)phenyl]-2-(2,2,4-trimethylpyrrolidin-1-yl)pyridine-3-carboxamide]	–
< 3000	Cc1ccc2nc(N3C[C@@H](C)CC3(C)C)c(C(=O)NS(=O)(=O)c3cccc(N)n3)cc2c1 [Compound 2548, N-[(6-amino-2-pyridyl)sulfonyl]-6-methyl-2-[(4S)-2,2,4-trimethylpyrrolidin-1-yl]quinoline-3-carboxamide]	–
3000 to 10000	Cc1ccn(CCCNc2cccc(S(=O)(=O)NC(=O)c3cccnc3N3CC(C)CC3(C)C)n2)n1 (stereo not drawn) [Compound 2550, N—[[6-[3-(3-methylpyrazol-1-yl)propylamino]-2-pyridyl]sulfonyl]-2-(2,2,4-trimethylpyrrolidin-1-yl)pyridine-3-carboxamide]	–
< 3000	COc1cccc(Oc2cccc(S(=O)(=O)NC(=O)c3cccnc3N3CC(C)CC3(C)C)n2)c1 (stereo not drawn) [Compound 2551, N—[[6-(3-methoxyphenoxy)-2-pyridyl]sulfonyl]-2-(2,2,4-trimethylpyrrolidin-1-yl)pyridine-3-carboxamide]	–
< 3000	C[C@@H]1CN(c2nc(CCC3CC3)ccc2C(=O)NS(=O)(=O)c2cccnc2N)C(C)(C)C1 [Compound 2553, N-[(2-amino-3-pyridyl)sulfonyl]-6-(2-cyclopropylethyl)-2-[(4S)-2,2,4-trimethylpyrrolidin-1-yl]pyridine-3-carboxamide]	–
< 3000	C[C@@H]1CN(c2nc(-c3ccccc3O)ccc2C(=O)NS(=O)(=O)c2cccc(N)n2)C(C)(C)C1 [Compound 2555, N-[(6-amino-2-pyridyl)sulfonyl]-6-(2-hydroxyphenyl)-2-[(4S)-2,2,4-trimethylpyrrolidin-1-yl]pyridine-3-carboxamide]	–
< 3000	CCOc1ccccc1-c1cnc(N2CC(C)CC2(C)C)c(C(=O)NS(=O)(=O)c2cccc(N)n2)c1 (stereo not drawn) [Compound 2557, N-[(6-amino-2-pyridyl)sulfonyl]-5-(2-ethoxyphenyl)-2-(2,2,4-trimethylpyrrolidin-1-yl)pyridine-3-carboxamide]	–
< 3000	CC1CN(c2ncccc2C(=O)NS(=O)(=O)c2cccc(N3CCCC3)n2)C(C)(C)C1 (stereo not drawn) [Compound 2561, N-[(6-pyrrolidin-1-yl-2-pyridyl)sulfonyl]-2-(2,2,4-trimethylpyrrolidin-1-yl)pyridine-3-carboxamide]	–
< 3000	COc1cccc(-c2ccc(C(=O)NS(=O)(=O)c3cccnc3N)c(N3C[C@@H](C)CC3(C)C)n2)c1F [Compound 2562, N-[(2-amino-3-pyridyl)sulfonyl]-6-(2-fluoro-3-methoxy-phenyl)-2-[(4S)-2,2,4-trimethylpyrrolidin-1-yl]pyridine-3-carboxamide]	–
< 3000	CC1CN(c2ncccc2C(=O)NS(=O)(=O)c2cccc(Oc3ccc(-n4cccc4)cc3)n2)C(C)(C)C1 (stereo not drawn) [Compound 2563, N—[[6-(4-pyrrol-1-ylphenoxy)-2-pyridyl]sulfonyl]-2-(2,2,4-trimethylpyrrolidin-1-yl)pyridine-3-carboxamide]	–
< 3000	COc1ncc(-c2ccc(C(=O)NS(=O)(=O)c3cccnc3N)c(N3C[C@@H](C)CC3(C)C)n2)cc1C [Compound 2564, N-[(2-amino-3-pyridyl)sulfonyl]-6-(6-methoxy-5-methyl-3-pyridyl)-2-[(4S)-2,2,4-trimethylpyrrolidin-1-yl]pyridine-3-carboxamide]	–
3000 to 10000	CCC(CC)N1CCN(c2cccc(S(=O)(=O)NC(=O)c3cccnc3N3CC(C)CC3(C)C)n2)CC1 (stereo not drawn) [Compound 2565, N—[[6-[4-(1-ethylpropyl)piperazin-1-yl]-2-pyridyl]sulfonyl]-2-(2,2,4-trimethylpyrrolidin-1-yl)pyridine-3-carboxamide]	–
